Measured values published in ChEMBL document CHEMBL1158031, “Biscembranes from the soft coral Sarcophyton glaucum” (J Nat Prod, 2006).
The source made the active and inactive calls. The rule behind the calls is not given here.

What was measured:
HL-60 [1] = assay: Cytotoxicity against human HL-60 upto 100 uM; type: functional, cell-based
HL-60 [2] = assay: Cytotoxicity against human HL-60; type: functional, cell-based

Structure (SMILES) | Activity (HL-60 [1]) | IC50 (HL-60 [2])
COC(=O)[C@]12CC(=O)[C@H](C(C)C)CC(=O)/C(C)=C/CC/C(C)=C/C(=O)[C@H]1CC(C)=C1C[C@H](OC(C)=O)[C@](C)(O)[C@H]3CC[C@@](C)(O)[C@H](CC/C(C)=C/[C@@H]12)O3 | inactive | 
COC(=O)[C@]12CC(=O)[C@H](C(C)C)CC(=O)/C(C)=C/CC/C(C)=C\C(=O)[C@H]1CC(C)=C1C[C@H](OC(C)=O)[C@](C)(O)[C@H]3CC[C@@](C)(O)[C@H](CC/C(C)=C/[C@@H]12)O3 [BISGLAUCUMLIDE C] |  | 33.7 µM
COC(=O)[C@]12CC(=O)[C@H](C(C)C)CC(=O)/C(C)=C/CC/C(C)=C/C(=O)[C@H]1CC(C)=C1C[C@H](O)[C@](C)(O)[C@H]3CC[C@@](C)(O)[C@H](CC/C(C)=C/[C@@H]12)O3 | inactive | 
COC(=O)[C@]12CC(=O)[C@H](C(C)C)CC(=O)/C(C)=C\CC/C(C)=C\C(=O)[C@H]1CC(C)=C1C[C@H](OC(C)=O)[C@](C)(O)[C@H]3CC[C@@](C)(O)[C@H](CC/C(C)=C/[C@@H]12)O3 [BISGLAUCUMLIDE D] |  | 42.3 µM
